Data reported in patent publication US5760050A, “Antipsychotic method utilizing certain tetrahydrochromeno[3,4-c]pyridin-5-ones” (Warner-Lambert Company, priority 1997, dated 1998).
Counter-ions that a name gives are not always drawn.

Columns and labels:
[1] = biological target: T1, human D4 dopamine receptor (Homo sapiens, UniProt P21917); assay: inhibition of [^3 H]spiperone binding to the human D4 dopamine receptor
T1 construct: expressed in transfected cells
T1 sequence (P21917 1-419): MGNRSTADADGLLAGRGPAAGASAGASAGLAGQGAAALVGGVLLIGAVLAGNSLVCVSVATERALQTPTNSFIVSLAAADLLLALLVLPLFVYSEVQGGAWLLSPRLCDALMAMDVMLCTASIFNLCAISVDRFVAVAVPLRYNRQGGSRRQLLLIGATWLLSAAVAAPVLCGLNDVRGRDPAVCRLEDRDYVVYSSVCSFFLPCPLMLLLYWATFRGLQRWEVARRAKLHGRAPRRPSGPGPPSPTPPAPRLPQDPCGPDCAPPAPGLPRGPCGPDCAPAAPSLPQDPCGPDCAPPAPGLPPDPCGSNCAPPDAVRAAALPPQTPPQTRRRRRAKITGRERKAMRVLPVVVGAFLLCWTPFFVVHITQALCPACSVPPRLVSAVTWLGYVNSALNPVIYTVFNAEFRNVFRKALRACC
Protocol: (§1) Compounds of Formula I were tested for their ability to bind to dopamine receptors as measured by their inhibition of [^3 H]spiperone binding to the human D2 and D3 receptors in an assay described by MacKenzie R. G., VanLeeuwen D., Pugsley T. A., et al., "Characterization of the human dopamine D3 receptor expressed in transfected cell lines." Eur. J. Pharmacol.-Mol. Pharmacol., 1994;266:79-85; for the human D4 dopamine receptor in an assay described by Pugsley T. A., David M. D., Akunne H. C., et al., "CI-1007, a dopamine partial agonist and potential antipsychotic agent. I. Neurochemical Effects." J. Pharmacol. Exp. Ther., 1995;274:898-911; and for ability to block the action of an agonist in a [^3 H]thymidine incorporation assay described by Lajiness N. E., Chio C. L., Huff R. M., "D2 dopamine receptor stimulation of mitogenesis in transfected Chinese hamster ovary cells: relationship to dopamine stimulation of tyrosine phosphorylations." J. Pharmacol. Exp. Ther., 1993;267:1573-81. This test determines the agonist/antagonist character of a compound by measuring [^3 H]thymidine uptake in Chinese hamster ovary (CHO) pro-5 cells expressing the dopamine D4 receptor. Agonists, such as quinpirole, promote cell growth and subsequent [^3 H]thymidine incorporation, while antagonists block the action of agonists. […] The above articles are incorporated herein by reference for their assay methodology.

[2] = biological target: T2, human D3 receptor (Homo sapiens, UniProt P35462); assay: inhibition of [^3 H]spiperone binding to the human D3 receptor; conditions: read-out: Dopamine Receptor Binding (Ki, nM) D3
T2 construct: expressed in transfected cells
T2 sequence (P35462 whole entry): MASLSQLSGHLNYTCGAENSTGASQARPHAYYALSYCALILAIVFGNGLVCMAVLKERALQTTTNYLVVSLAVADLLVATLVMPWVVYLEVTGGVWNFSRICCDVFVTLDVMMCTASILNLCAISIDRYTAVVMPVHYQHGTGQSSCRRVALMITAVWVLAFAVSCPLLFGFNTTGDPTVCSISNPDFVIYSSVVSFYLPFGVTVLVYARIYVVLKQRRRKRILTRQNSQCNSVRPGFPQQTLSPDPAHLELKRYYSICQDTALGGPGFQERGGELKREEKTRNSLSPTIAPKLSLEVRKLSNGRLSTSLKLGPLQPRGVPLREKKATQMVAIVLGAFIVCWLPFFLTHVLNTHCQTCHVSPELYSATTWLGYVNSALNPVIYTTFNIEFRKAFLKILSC
Protocol: as §1

[3] = biological target: T3, human D2 receptor (Homo sapiens, UniProt P14416); assay: inhibition of [^3 H]spiperone binding to the human D2 receptor; conditions: read-out: Dopamine Receptor Binding (Ki, nM) D2
T3 construct: expressed in transfected cells
T3 sequence (P14416 whole entry): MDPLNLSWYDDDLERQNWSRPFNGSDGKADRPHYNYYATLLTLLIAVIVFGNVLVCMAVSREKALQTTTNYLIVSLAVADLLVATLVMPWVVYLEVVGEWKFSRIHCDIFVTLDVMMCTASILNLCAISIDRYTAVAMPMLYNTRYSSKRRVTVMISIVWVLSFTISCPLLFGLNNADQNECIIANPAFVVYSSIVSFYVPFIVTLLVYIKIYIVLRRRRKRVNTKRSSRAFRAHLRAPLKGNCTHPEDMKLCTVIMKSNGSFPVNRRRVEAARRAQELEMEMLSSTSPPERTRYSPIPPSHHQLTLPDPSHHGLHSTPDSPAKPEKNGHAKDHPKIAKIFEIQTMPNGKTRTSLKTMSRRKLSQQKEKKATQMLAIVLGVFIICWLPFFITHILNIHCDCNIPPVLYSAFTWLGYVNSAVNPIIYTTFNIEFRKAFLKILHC
Protocol: as §1

[4] = test system: schizophrenia; conditions: in vivo; cited from earlier work
[5] = test system: dopamine D4 receptor; conditions: D4 vs D2; cited from earlier work

Row | SMILES | Ki [1] [nM] | Ki [2] [nM] | Ki [3] [nM] | other results
1 | COc1cc2oc(=O)c3c(c2cc1OC)CCN(Cc1ccccc1)C3 [Example 6, 3-Benzyl-8,9-dimethoxy-1,2,3,4-tetrahydro-chromeno[3,4-c]pyridin-5-one] | 59 |  |  | 
2 | Cc1cc2oc(=O)c3c(c2cc1O)CCN(Cc1ccccc1)C3 [Example 7, 3-Benzyl-9-hydroxy-8-methyl-1,2,3,4-tetrahydro-chromeno[3,4-c]pyridin-5-onehydrochloride] | 8.01 | 295 | 1900 | 
3 | Cc1c(O)cc2oc(=O)c3c(c2c1O)CCN(Cc1ccccc1)C3 [Example 8, 3-Benzyl-8,10-dihydroxy-9-methyl-1,2,3,4-tetrahydro-chromeno[3,4-c]pyridin-5-one hydrochloride] | 44.3 |  |  | 
4 | COc1ccc2c3c(c(=O)oc2c1)CN(Cc1ccnc2ccccc12)CC3 [Example 11, 8-Methoxy-3-quinolin-4-ylmethyl-1,2,3,4-tetrahydro-chromeno[3,4-c]pyridin-5-one] | 34.3 |  |  | 
5 | COc1ccc2c3c(c(=O)oc2c1)CN(Cc1cc(OC)c(OC)c(OC)c1)CC3 [Example 12, 8-Methoxy-3-(3,4,5-trimethoxy-benzyl)-1,2,3,4-tetrahydro-chromeno[3,4-c]pyridin-5-one] | 21.3 | 3670 | 2670 | 
6 | Cc1ccc2c3c(c(=O)oc2c1)CN(Cc1ccccc1)CC3 [Example 17, 3-Benzyl-8-methyl-1,2,3,4-tetrahydro-chromeno[3,4-c]pyridin-5-one] | 3.59 | 338 |  | 
7 | COc1ccc2c3c(c(=O)oc2c1)CN(Cc1ccccn1)CC3 [Example 19, 8-Methoxy-3-pyridin-2-ylmethyl-1,2,3,4-tetrahydro-chromeno[3,4-c]pyridin-5-one] | 48 |  |  | 
8 | COc1cc2oc(=O)c3c(c2cc1OC)CCN(Cc1ccc(Cl)cc1)C3 [Example 21, 3-(4-Chloro-benzyl)-8,9-dimethoxy-1,2,3,4-tetrahydro-chromeno[3,4-c]pyridin-5-one] | 8.46 |  | > 5880 | 
9 | COc1ccc2c3c(c(=O)oc2c1)CN(CCc1ccccc1)CC3 [Example 22, 8-Methoxy-3-phenethyl-1,2,3,4-tetrahydro-chromeno[3,4-c]pyridin-5-one] | 6.87 | 591 | > 5880 | 
10 | COc1cc2oc(=O)c3c(c2cc1OC)CCN(CCc1ccccc1)C3 [Example 23, 8,9-Dimethoxy-3-phenethyl-1,2,3,4-tetrahydro-chromeno[3,4-c]pyridin-5-one hydrochloride] | 32.6 |  |  | 
11 | COc1ccc2c3c(c(=O)oc2c1OC)CN(Cc1ccccc1)CC3 [Example 24, 3-Benzyl-7,8-dimethoxy-1,2,3,4-tetrahydro-chromeno[3,4-c]pyridin-5-one] | 16.2 |  |  | 
12 | CN1CCN(C2=Nc3cc(Cl)ccc3Nc3ccccc32)CC1 [clozapine] |  |  |  | improvement of positive and negative symptoms of schizophrenia [4]: improves both the positive and negative symptoms of schizophrenia; incidence of extrapyramidal side effects [4]: low incidence of extrapyramidal side effects; higher affinity for the dopamine D4 receptor than for the D2 receptor [5]: 10 fold

More lines, main results first:

Row | Ki [1] [nM] | Ki [2] [nM] | Ki [3] [nM] | SMILES | other results
13 | 1.5 | 60 |  | COc1ccc2c3c(c(=O)oc2c1)CN(Cc1ccccc1)CC3 [Example 1, 3-Benzyl-8-methoxy-1,2,3,4-tetrahydro-chromeno[3,4-c]-pyridin-5-one] | 
14 | 2.6 | 491 |  | COc1ccc2c3c(c(=O)oc2c1)CN(Cc1ccc(C)cc1)CC3 [Example 3, 8-Methoxy-3-(4-methyl-benzyl)-1,2,3,4-tetrahydro-chromeno[3,4-c]pyridin-5-one] | 
15 | 60.9 |  |  | COc1ccc2c3c(c(=O)oc2c1)CN(Cc1ccc(Cl)c(Cl)c1)CC3 [Example 4, 3-(3,4-Dichloro-benzyl)-8-methoxy-1,2,3,4-tetrahydro-chromeno[3,4-c]pyridin-5-one] | 
16 | 7.53 |  | > 5880 | COc1ccc2c3c(c(=O)oc2c1)CN(Cc1ccc([N+](=O)[O-])cc1)CC3 [Example 5, 8-Methoxy-3-(4-nitro-benzyl)-1,2,3,4-tetrahydro-chromeno[3,4-c]pyridin-5-one] | 
17 | 7.3 | 11700 | > 5880 | COc1ccc2c3c(c(=O)oc2c1)CN(Cc1ccc(Cl)cc1)CC3 [Example 9, 3-(4-Chloro-benzyl)-8-methoxy-1,2,3,4-tetrahydro-chromeno[3,4-c]pyridin-5-one] | 
18 | 73.5 |  |  | COc1ccc2c3c(c(=O)oc2c1)CN(Cc1ccncc1)CC3 [Example 10, 8-Methoxy-3-pyridin-4-ylmethyl-1,2,3,4-tetrahydro-chromeno[3,4-c]pyridin-5-one] | 
19 | 8.18 | 966 |  | COc1ccc2c3c(c(=O)oc2c1)CN(Cc1ccc(C(F)(F)F)cc1)CC3 [Example 13, 8-Methoxy-3-(4-trifluoromethyl-benzyl)-1,2,3,4-tetrahydro-chromeno[3,4-c]pyridin-5-one] | 
20 | 84.3 |  |  | COc1ccc(CN2CCc3c(c(=O)oc4cc(OC)ccc34)C2)cc1 [Example 14, 8-Methoxy-3-(4-methoxy-benzyl)-1,2,3,4-tetrahydro-chromeno[3,4-c]pyridin-5-one] | 
21 | 17.2 | 2630 |  | COc1ccc2c3c(c(=O)oc2c1)CN(Cc1cccc(Cl)c1)CC3 [Example 15, 3-(3-Chloro-benzyl)-8-methoxy-1,2,3,4-tetrahydro-chromeno[3,4-c]pyridin-5-one] | 
22 | 33.9 | 2610 | > 5880 | COc1ccc2c3c(c(=O)oc2c1)CN(Cc1ccccc1Cl)CC3 [Example 16, 3-(2-Chloro-benzyl)-8-methoxy-1,2,3,4-tetrahydro-chromeno[3,4-c]pyridin-5-one] | 
23 | 21.3 |  | 3980 | COc1ccc2c3c(c(=O)oc2c1)CN(Cc1cccnc1)CC3 [Example 18, 8-Methoxy-3-pyridin-3-ylmethyl-1,2,3,4-tetrahydro-chromeno[3,4-c]pyridin-5-one] | 
24 | 10.6 |  |  | Cc1ccc2c3c(c(=O)oc2c1)CN(Cc1ccc(Cl)cc1)CC3 [Example 20, 3-(4-Chloro-benzyl)-8-methyl-1,2,3,4-tetrahydro-chromeno[3,4-c]pyridin-5-one] | 
